Columns and labels:
[1] = Selectivity index, ratio of CC50 for human PBMC to IC50 for HIV1 3B; assay type: functional
[2] = system: Human immunodeficiency virus 1; test: Antiviral activity against HIV1 3B coinfected with HTLV in human PBMC assessed as inhibition of viral p24 antigen production after 7 days by ELISA; assay type: functional, organism-based; conditions: Human immunodeficiency virus 1, 3B, 168 h
[3] = Antiprion activity against […] RML PrPSc infected in mouse N2A cells after 6 days by ELISA; assay type: cell-based; conditions: 144 h
[4] = Drug uptake in po dosed mouse brain measured after 3 days; assay type: ADME, organism-based; conditions: read-out: Drug uptake
[5] = biological target: High affinity nerve growth factor receptor (Homo sapiens, UniProt P04629); test: Inhibition of human recombinant N-terminal His6-tagged TRKA cytoplasmic domain (residues 440)
[6] = Cytotoxicity against human Hep3B cells assessed as growth inhibition after 48 hrs by MTT assay; assay type: functional, cell-based, Hep 3B2

Sequence of High affinity nerve growth factor receptor (P04629 whole entry, the tested form may be a part): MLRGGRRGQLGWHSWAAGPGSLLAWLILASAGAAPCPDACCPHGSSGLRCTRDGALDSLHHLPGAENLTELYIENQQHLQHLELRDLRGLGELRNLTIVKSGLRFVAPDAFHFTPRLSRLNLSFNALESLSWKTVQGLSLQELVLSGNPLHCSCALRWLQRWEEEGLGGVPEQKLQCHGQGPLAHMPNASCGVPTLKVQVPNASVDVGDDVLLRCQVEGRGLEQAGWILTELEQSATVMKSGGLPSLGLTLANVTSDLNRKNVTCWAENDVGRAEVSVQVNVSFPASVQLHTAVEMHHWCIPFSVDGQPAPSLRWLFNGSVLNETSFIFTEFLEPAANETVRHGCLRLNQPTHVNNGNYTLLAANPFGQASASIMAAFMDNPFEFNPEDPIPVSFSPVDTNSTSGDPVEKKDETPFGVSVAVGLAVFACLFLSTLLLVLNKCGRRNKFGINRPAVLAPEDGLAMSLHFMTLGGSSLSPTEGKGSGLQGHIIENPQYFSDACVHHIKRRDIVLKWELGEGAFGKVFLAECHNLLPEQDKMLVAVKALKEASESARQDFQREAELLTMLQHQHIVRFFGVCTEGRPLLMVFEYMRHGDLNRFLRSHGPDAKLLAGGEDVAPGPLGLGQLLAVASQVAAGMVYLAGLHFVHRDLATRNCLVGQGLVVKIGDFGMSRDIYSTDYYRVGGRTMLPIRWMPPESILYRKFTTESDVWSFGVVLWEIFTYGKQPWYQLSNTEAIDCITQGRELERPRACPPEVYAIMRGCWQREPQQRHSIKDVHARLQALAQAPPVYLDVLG

Structure (SMILES) | Ratio CC50/IC50 [1] | IC50 [2] | further results
S=C(NCc1ccco1)Nc1nccs1 | >100000 | < 0.001 µM | –
Cc1ccc(Nc2nc(-c3cc(-c4ccccc4)no3)cs2)nc1 | – | – | EC50 [3]: 0.94 µM; concentration at 72 h [4]: 25 µM
S=C(NCCOc1ccccc1)Nc1nccs1 | >100000 | < 0.001 µM | –
O=C(CCc1ccco1)Nc1nc(-c2ccccc2)cs1 | – | – | IC50 [5]: 0.013 µM; IC50 [6]: 0.04 µM

From ChEMBL document CHEMBL3763068, “Recent developments of 2-aminothiazoles in medicinal chemistry” (Eur J Med Chem, 2016)
